Read-outs that look alike come from different tables or passages of the source.
Assays:
Acute Toxicity Test = format: in vivo; conditions: oral, 1000 mg/kg, until after one week
Procedure: Male Jcl-ICR mice (5 wk) were used in groups of five individuals. The animals of the respective groups were orally administered with the compounds (227), (236) and (303) respectively produced in Production Examples 87, 90 and 109 at the dose of 1000 mg/kg.

PAF-induced hypotension = experiment: Inhibitory action on PAF-induced hypotension in rats; format: in vivo, rat (Sprague-Dawley); conditions: Rattus norvegicus, read-out: Inhibitory Rate (Lowering of Blood Pressure); for inhibition in vivo at 0.01 mg/kg / inhibition in vivo at 0.03 mg/kg / inhibition in vivo at 0.1 mg/kg: iv; for inhibition in vivo at 1 mg/kg / inhibition in vivo at 3 mg/kg: oral
Procedure: Sprague-Dawley male rats, each weighing about 250 g, were subjected to the experiment. The rats were cannulated on the side of femoral artery for measuring the blood pressure, and on the side of femoral vein for administering the drug. The blood pressure was measured through a pressure transducer and recorded. First, PAF (1 μg/kg) was administered intravenously (i.v.) to examine the extent of lowering of blood pressure. Then, the test samples were administered intravenously or orally. […]
The inhibitory action on PAF-induced hypotension (% inhibition) is indicated as the ratio of blood pressure-lowering degree (Δ mmHg) induced by PAF after administration of test samples relative to blood pressure-lowering degree (Δ mmHg) induced by PAF before administration of test samples.

[1] = system: platelet aggregation (PAF); experiment: Inhibitory action on PAF-induced rabbit platelet aggregation; format: cell-based; conditions: Oryctolagus cuniculus, read-out: inhibitory percentage (platelet aggregation); for inhibition at 3 µM: 3 × 10^-6 M; for inhibition at 0.3 µM: 3 × 10^-7 M; for inhibition at 0.03 µM: 3 × 10^-8 M
Procedure: Blood was collected directly from the hearts of male rabbits using a syringe containing, as an anticoagulant, 3.15% citric acid (one part to 9 parts of blood). The blood was subjected to centrifuge at 800 rpm for ten minutes at room temperature to obtain platelet rich plasma (PRP). The remaining blood was further subjected to centrifuge at 3000 rpm for ten minnutes to separate platelet poor plasma (PPP) as the supernatant. PRP was diluted with PPP, and the number of platelets was adjusted to about 500,000/ μl. This PRP(250 μl) was stirred for two minutes at 37° C., and there was added a test sample, and the mixture was stirred for further two minutes, followed by addition of PAF of a given concentration. Platelet aggregation was examined by means of a platelet-agglutometer (manufactured by Rika Denki). Platelet aggregation preventing action of the test sample was determined based on the maximum percent light transmission (maximum percent. agglutination).

Q: Which death of mice (Acute Toxicity Test) does the source give for `CCC[n+]1cc(Br)cc(C(=O)N(CCC(=O)NCCOC(=O)Nc2cccc3ccccc23)c2ccccc2)c1` [Production Example 90, 5-bromo-3-[N-[2-[2-(1-naphthylcarbamoyloxy)ethyl]carbamoyl]ethyl-N-phenyl]carbamoyl-1-propylpyridinium chloride] here?
A: No death of mice was observed

Q: What about the inhibition in vivo at 0.01 mg/kg (PAF-induced hypotension; 1 hr.) of the same compound?
A: 58%

Q: What about the inhibition in vivo at 0.01 mg/kg (PAF-induced hypotension; 2 hr.) of the same compound?
A: 36%

Q: What about the inhibition in vivo at 0.01 mg/kg (PAF-induced hypotension; 4 hr.) of the same compound?
A: 17%

Q: What about the inhibition in vivo at 0.01 mg/kg (PAF-induced hypotension; 6 hr.) of the same compound?
A: 10%

Q: And the inhibition in vivo at 0.01 mg/kg (PAF-induced hypotension; 8 hr.)?
A: 1%

Q: What about the inhibition in vivo at 0.03 mg/kg (PAF-induced hypotension; 1 hr.) of the same compound?
A: 83%

Q: And the inhibition in vivo at 0.03 mg/kg (PAF-induced hypotension; 2 hr.)?
A: 64%

Q: What about the inhibition in vivo at 0.03 mg/kg (PAF-induced hypotension; 4 hr.) of the same compound?
A: 51%

Q: And the inhibition in vivo at 0.03 mg/kg (PAF-induced hypotension; 6 hr.)?
A: 36%

Q: And the inhibition in vivo at 0.03 mg/kg (PAF-induced hypotension; 8 hr.)?
A: 23%

Q: And the inhibition in vivo at 0.01 mg/kg (PAF-induced hypotension; 5 min, i.v., 5 min.)?
A: 69%

Q: What about the inhibition in vivo at 0.03 mg/kg (PAF-induced hypotension; 5 min, i.v., 5 min.) of the same compound?
A: 100%

Q: What about the inhibition in vivo at 1 mg/kg (PAF-induced hypotension; 1 hr.) of the same compound?
A: 69%

Q: And the inhibition in vivo at 1 mg/kg (PAF-induced hypotension; 2 hr.)?
A: 68%

Q: What about the inhibition in vivo at 1 mg/kg (PAF-induced hypotension; 4 hr.) of the same compound?
A: 78%

Q: And the inhibition in vivo at 1 mg/kg (PAF-induced hypotension; 6 hr.)?
A: 71%

Q: And the inhibition in vivo at 1 mg/kg (PAF-induced hypotension; 8 hr.)?
A: 60%

Q: And the inhibition in vivo at 3 mg/kg (PAF-induced hypotension; 1 hr.)?
A: 96%

Q: What about the inhibition in vivo at 3 mg/kg (PAF-induced hypotension; 2 hr.) of the same compound?
A: 99%

Q: And the inhibition in vivo at 3 mg/kg (PAF-induced hypotension; 4 hr.)?
A: 94%

Q: And the inhibition in vivo at 3 mg/kg (PAF-induced hypotension; 6 hr.)?
A: 87%

Q: And the inhibition in vivo at 3 mg/kg (PAF-induced hypotension; 8 hr.)?
A: 81%

Q: And the inhibition at 3 µM [1]?
A: 100%

Q: What about the inhibition at 0.3 µM [1] of the same compound?
A: 100%

Q: And the inhibition at 0.03 µM [1]?
A: 16%

Q: What does the source list for `CCC[n+]1cc(Br)cc(C(=O)N(CCC(=O)NCCOC(=O)N2CCc3ccccc3C2)c2ccccc2)c1` [Production Example 87, 5-Bromo-3-[N-[2-[[2-(1,2,3,4-tetrahydroisoquinolyl)carbonyloxy]ethyl]carbamoyl]ethyl-N-phenyl]carbamoyl-1-propylpyridinium chloride]?
A: death of mice (Acute Toxicity Test): No death of mice was observed; inhibition in vivo at 0.01 mg/kg (PAF-induced hypotension; 1 hr.): 64%; inhibition in vivo at 0.01 mg/kg (PAF-induced hypotension; 2 hr.): 51%; inhibition in vivo at 0.01 mg/kg (PAF-induced hypotension; 4 hr.): 41%; inhibition in vivo at 0.01 mg/kg (PAF-induced hypotension; 6 hr.): 30%; inhibition in vivo at 0.01 mg/kg (PAF-induced hypotension; 8 hr.): 23%; inhibition in vivo at 0.01 mg/kg (PAF-induced hypotension; 5 min, i.v., 5 min.): 91%; inhibition in vivo at 1 mg/kg (PAF-induced hypotension; 1 hr.): 57%; inhibition in vivo at 1 mg/kg (PAF-induced hypotension; 2 hr.): 76%; inhibition in vivo at 1 mg/kg (PAF-induced hypotension; 4 hr.): 86%; inhibition in vivo at 1 mg/kg (PAF-induced hypotension; 6 hr.): 74%; inhibition in vivo at 1 mg/kg (PAF-induced hypotension; 8 hr.): 63%; inhibition in vivo at 3 mg/kg (PAF-induced hypotension; 1 hr.): 100%; inhibition in vivo at 3 mg/kg (PAF-induced hypotension; 2 hr.): 97%; inhibition in vivo at 3 mg/kg (PAF-induced hypotension; 4 hr.): 99%; inhibition in vivo at 3 mg/kg (PAF-induced hypotension; 6 hr.): 93%; inhibition in vivo at 3 mg/kg (PAF-induced hypotension; 8 hr.): 88%; inhibition at 3 µM [1]: 100%; inhibition at 0.3 µM [1]: 100%; inhibition at 0.03 µM [1]: 49%

Q: Which death of mice (Acute Toxicity Test) does the source give for `CCC[n+]1cc(Br)cc(C(=O)N(CCC(=O)NCCNS(=O)(=O)c2cccc3ccccc23)c2ccccc2)c1` [Production Example 109, 5-Bromo-3-[N-[2-[2-(1-naphthylsulfonamide)ethyl]carbamoyl]-ethyl-N-phenyl]carbamoyl-1-propylpyridinium chloride] here?
A: No death of mice was observed

Q: And the inhibition in vivo at 0.1 mg/kg (PAF-induced hypotension; 1 hr.)?
A: 100%

Q: What about the inhibition in vivo at 0.1 mg/kg (PAF-induced hypotension; 2 hr.) of the same compound?
A: 97%

Q: What about the inhibition in vivo at 0.1 mg/kg (PAF-induced hypotension; 4 hr.) of the same compound?
A: 71%

Q: What about the inhibition in vivo at 0.1 mg/kg (PAF-induced hypotension; 6 hr.) of the same compound?
A: 50%

Q: What about the inhibition in vivo at 0.1 mg/kg (PAF-induced hypotension; 8 hr.) of the same compound?
A: 46%

Q: What about the inhibition in vivo at 0.1 mg/kg (PAF-induced hypotension; 5 min, i.v., 5 min.) of the same compound?
A: 100%

Q: And the inhibition in vivo at 1 mg/kg (PAF-induced hypotension; 1 hr.)?
A: 56%

Q: And the inhibition in vivo at 1 mg/kg (PAF-induced hypotension; 2 hr.)?
A: 65%

Q: And the inhibition in vivo at 1 mg/kg (PAF-induced hypotension; 4 hr.)?
A: 64%

Q: And the inhibition in vivo at 1 mg/kg (PAF-induced hypotension; 6 hr.)?
A: 54%

Q: And the inhibition in vivo at 1 mg/kg (PAF-induced hypotension; 8 hr.)?
A: 48%

Q: What about the inhibition in vivo at 3 mg/kg (PAF-induced hypotension; 1 hr.) of the same compound?
A: 95%

Q: What about the inhibition in vivo at 3 mg/kg (PAF-induced hypotension; 2 hr.) of the same compound?
A: 97%

Q: And the inhibition in vivo at 3 mg/kg (PAF-induced hypotension; 4 hr.)?
A: 97%

Q: What about the inhibition in vivo at 3 mg/kg (PAF-induced hypotension; 6 hr.) of the same compound?
A: 92%

Q: What about the inhibition in vivo at 3 mg/kg (PAF-induced hypotension; 8 hr.) of the same compound?
A: 80%

Q: And the inhibition at 3 µM [1]?
A: 100%

Q: And the inhibition at 0.3 µM [1]?
A: 100%

Q: And the inhibition at 0.03 µM [1]?
A: 26%
